Results published in ChEMBL document CHEMBL6092191, “Advancing Cancer Immunotherapy through Engineering New PD-L1 Degraders: A Comprehensive Study from Small Molecules to PD-L1-Specific Peptide-Drug Conjugates” (J Med Chem, 2024).
Active and inactive are the calls of the source. The calls are words filed in the database; no cut-off is given here.

What was measured:
Lewis lung carcinoma = experiment: Effect on PD-L1 mRNA level in Lewis lung carcinoma cells at 10 uM incubated for 24 hrs by qRT-PCR analysis; type: functional, cell-based; conditions: Mus musculus
[1] = target: COP9 signalosome complex subunit 5 (Homo sapiens) (UniProt Q92905); experiment: Induction of PD-L1 degradation in human NCI-H460 cells at 10 uM pretreated with compound followed by CHX incubation upto 8 hrs by Western blot analysis; type: cell-based
[2] = Toxicity in C57BL/6 mouse model xenografted with […] cells assessed as body weight loss at 10 mg/kg, ip administered daily for 10 days; type: organism-based; conditions: in vivo, 240 h, time 10 day
[3] = target: COP9 signalosome complex subunit 5 (Homo sapiens) (UniProt Q92905); experiment: Induction of PD-L1 degradation in human NCI-H460 cells assessed as PD-L1 ubiquitination by Western blot analysis; type: cell-based
PC-9 [4] = experiment: Effect on PD-L1 mRNA level in human PC-9 cells at 10 uM incubated for 24 hrs by qRT-PCR analysis; type: functional, cell-based
[5] = target: COP9 signalosome complex subunit 5 (Homo sapiens) (UniProt Q92905); experiment: Induction of PD-L1 degradation in human NCI-H460 cells at 10 uM incubated for 24 hrs by Western blot analysis; type: cell-based
PC-9 [6] = experiment: Antiproliferative activity against human PC-9 cells at 10 uM measured after 4 days by MTT assay; type: functional, cell-based; conditions: time 4.0 day
[7] = Toxicity in C57BL/6 mouse model xenografted with […] cells assessed as change in BUN level at 10 mg/kg, ip administered daily for 10 days; type: organism-based, Blood; conditions: in vivo, 240 h, time 10 day
[8] = test system: Lewis lung carcinoma cell line; experiment: Anticancer activity against Lewis lung carcinoma cells measured after 3 days by MTT assay; type: functional, cell-based; conditions: Mus musculus, 72 h
[9] = Toxicity in C57BL/6 mouse model xenografted with […] cells assessed as change in AST level at 10 mg/kg, ip administered daily for 10 days; type: organism-based, Blood; conditions: in vivo, 240 h, time 10 day
NCI-H460 [10] = experiment: Effect on PD-L1 mRNA level in human NCI-H460 cells at 10 uM incubated for 24 hrs by qRT-PCR analysis; type: functional, cell-based
[11] = Toxicity in C57BL/6 mouse model xenografted with […] cells assessed as change in ALT level at 10 mg/kg, ip administered daily for 10 days; type: organism-based, Blood; conditions: in vivo, 240 h, time 10 day
[12] = target: COP9 signalosome complex subunit 5 (Homo sapiens) (UniProt Q92905); experiment: Induction of PD-L1 degradation in human NCI-H460 cells overexpressing CSN5 by Western blot analysis; type: cell-based
HEK-293T = experiment: Antiproliferative activity against HEK293T cells at 10 uM incubated for 4 days; type: toxicity, cell-based; conditions: human, 96 h, time 4 day
[13] = target: COP9 signalosome complex subunit 5 (Homo sapiens) (UniProt Q92905); experiment: Induction of PD-L1 degradation in […] cells at 10 uM by Western blot analysis; type: cell-based; conditions: Lewis lung carcinoma cell line, time <= 36.0 hrs
[14] = target: COP9 signalosome complex subunit 5 (Homo sapiens) (UniProt Q92905); experiment: Induction of PD-L1 degradation in human NCI-H460 cells incubated for 24 hrs by Western blot analysis; type: cell-based; conditions: dose <= 100.0 µM
[15] = target: COP9 signalosome complex subunit 5 (Homo sapiens) (UniProt Q92905); experiment: Induction of PD-L1 degradation in human NCI-H460 cells upto 20 uM in presence of MG132 by Western blot analysis; type: cell-based
NCI-H460 [16] = experiment: Inhibition of cell survival of human NCI-H460 cells co-cultivated with activated T cells at 10 uM incubated for 2 days by crystal violet staining based analysis; type: functional; conditions: time 2.0 day
[17] = target: COP9 signalosome complex subunit 5 (Homo sapiens) (UniProt Q92905); experiment: Induction of PD-L1 degradation in human PC-9 cells incubated for 24 hrs by Western blot analysis; type: cell-based; conditions: dose <= 100.0 µM
[18] = Toxicity in C57BL/6 mouse model xenografted with […] cells assessed as obvious damage in liver at 10 mg/kg, ip administered daily for 10 days by H and E staining based analysis; type: organism-based; conditions: in vivo, 240 h, time 10 day
[19] = Toxicity in C57BL/6 mouse model xenografted with […] cells assessed as change in serum creatinine level at 10 mg/kg, ip administered daily for 10 days; type: organism-based; conditions: in vivo, 240 h, time 10 day
[20] = target: COP9 signalosome complex subunit 5 (Homo sapiens) (UniProt Q92905); experiment: Induction of PD-L1 degradation in human PC-9 cells at 10 uM by Western blot analysis; type: cell-based; conditions: time <= 36.0 hrs
[21] = test system: Lewis lung carcinoma cell line; experiment: Antitumor T-cell immune response in Lewis lung carcinoma cells xenografted in C57BL/6 mouse model assessed as increase in ratio of CD8+ to CD4+ T cells in tumor at 10 mg/kg, ip administered daily for 10 days by flow cytometry; type: functional, organism-based; conditions: time 10.0 day
[22] = target: COP9 signalosome complex subunit 5 (Homo sapiens) (UniProt Q92905); experiment: Binding affinity to CSN5 in HEK293T cell lysate by Western blot analysis; type: subcellular
[23] = test system: Lewis lung carcinoma cell line; experiment: Antitumor T-cell immune response in Lewis lung carcinoma cells xenografted in C57BL/6 mouse model assessed as increase in TNF-alpha level in tumor at 10 mg/kg, ip administered daily for 10 days by ELISA; type: functional, organism-based; conditions: time 10.0 day
NCI-H1299 = experiment: Effect on IFN-gamma-induced PD-L1 mRNA expression in human NCI-H1299 cells at 10 uM by qRT-PCR analysis; type: functional, cell-based
[24] = target: COP9 signalosome complex subunit 5 (Homo sapiens) (UniProt Q92905); experiment: Induction of PD-L1 degradation in […] cells incubated for 24 hrs by Western blot analysis; type: cell-based; conditions: Lewis lung carcinoma cell line, dose <= 100.0 µM
A549 = experiment: Effect on IFN-gamma-induced PD-L1 mRNA expression in human A549 cells at 10 uM by qRT-PCR analysis; type: functional, cell-based
3T3-L1 = experiment: Antiproliferative activity against mouse 3T3-L1 cells at 10 uM incubated for 4 days; type: toxicity, cell-based; conditions: 3t3-l1, 96 h, time 4 day
[25] = test system: Lewis lung carcinoma cell line; experiment: Anticancer activity against Lewis lung carcinoma cells xenografted in C57BL/6 mouse model assessed as tumor growth inhibition at 10 mg/kg, ip administered daily for 10 days; type: functional, organism-based; conditions: time 10.0 day
[26] = test system: Lewis lung carcinoma cell line; experiment: Antitumor activity against Lewis lung carcinoma cells xenografted in C57BL/6 mouse model at 5 mg/kg, ip administered daily for 8 days relative to control; type: functional; conditions: 192 h, time 8 day, read-out: TGI
[27] = Toxicity in C57BL/6 mouse model xenografted with […] cells assessed as obvious damage in spleen at 10 mg/kg, ip administered daily for 10 days by H and E staining based analysis; type: organism-based; conditions: in vivo, 240 h, time 10 day
[28] = test system: Lewis lung carcinoma cell line; experiment: Antitumor T-cell immune response in Lewis lung carcinoma cells xenografted in C57BL/6 mouse model assessed as increase in GrB level in tumor at 10 mg/kg, ip administered daily for 10 days by ELISA; type: functional, organism-based; conditions: time 10.0 day
[29] = target: COP9 signalosome complex subunit 5 (Homo sapiens) (UniProt Q92905); experiment: Induction of IFN-gamma-induced PD-L1 degradation in human HCC827 cells at 10 uM incubated for 24 hrs by Western blot analysis; type: cell-based
[30] = target: COP9 signalosome complex subunit 5 (Homo sapiens) (UniProt Q92905); experiment: Induction of PD-L1 degradation in human NCI-H460 cells at 10 uM by Western blot analysis; type: cell-based; conditions: time <= 36.0 hrs
[31] = test system: Lewis lung carcinoma cell line; experiment: Anticancer activity against Lewis lung carcinoma cells xenografted in C57BL/6 mouse model at 10 mg/kg, ip administered daily for 10 days relative to control; type: functional; conditions: 240 h, time 10 day, read-out: TGI
[32] = Toxicity in C57BL/6 mouse model xenografted with […] cells assessed as obvious damage in heart at 10 mg/kg, ip administered daily for 10 days by H and E staining based analysis; type: organism-based; conditions: in vivo, 240 h, time 10 day
[33] = test system: Lewis lung carcinoma cell line; experiment: Antitumor T-cell immune response in Lewis lung carcinoma cells xenografted in C57BL/6 mouse model assessed as increase in ratio of CD8+ to CD4+ T cells in tumor at 5 mg/kg, ip administered daily for 8 days by flow cytometry; type: functional, organism-based; conditions: time 8.0 day

Chain of COP9 signalosome complex subunit 5 (Homo sapiens) (Q92905 2-334 limits assumed, one chain of several): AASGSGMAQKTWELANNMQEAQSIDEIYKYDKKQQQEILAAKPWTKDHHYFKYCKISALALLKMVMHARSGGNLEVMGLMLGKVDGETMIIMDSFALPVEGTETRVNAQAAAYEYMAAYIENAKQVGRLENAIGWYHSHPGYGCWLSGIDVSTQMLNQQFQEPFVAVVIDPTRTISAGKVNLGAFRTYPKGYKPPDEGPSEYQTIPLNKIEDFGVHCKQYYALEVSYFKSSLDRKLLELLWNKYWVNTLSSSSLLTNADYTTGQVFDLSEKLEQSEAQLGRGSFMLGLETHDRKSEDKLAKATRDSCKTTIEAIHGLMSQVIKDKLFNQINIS

Activity [1]: inactive
Activity [3]: Active
IC50 [8]: 122 µM
Activity [12]: inactive
Activity [13]: Time-dependent-effect
Activity [14]: Dose-dependent-effect
Activity [15]: inactive
Activity [17]: Dose-dependent-effect
Activity [20]: Time-dependent-effect
Activity [22]: Active
Activity [24]: Dose-dependent-effect
Activity [29]: Active
Activity [30]: Time-dependent-effect
SMILES: COc1cc2c(cc1OC)-c1cc3ccc(OC)c(OCCN)c3c[n+]1CC2.[Cl-]
Activity (Lewis lung carcinoma): inactive
Activity [2]: Non-toxic
Activity (PC-9 [4]): inactive
Activity [5]: Active; Most Effective Compound Among Pmt-O9 Derivatives
Activity (PC-9 [6]): inactive
Activity [7]: Non-toxic
Activity [9]: Non-toxic
Activity (NCI-H460 [10]): inactive
Activity [11]: Non-toxic
Activity (HEK-293T): Non-toxic
inhibition (NCI-H460 [16]): Active
Activity [18]: Non-toxic
Activity [19]: Non-toxic
Activity [21]: Active; Highest Enhancement Of Ratio Observed
Activity [23]: Active
Activity (NCI-H1299): inactive
Activity (A549): inactive
Activity (3T3-L1): Non-toxic
Activity [25]: Active
inhibition in vivo at 5 mg/kg [26]: 66%
Activity [27]: Non-toxic
Activity [28]: Active
inhibition in vivo at 10 mg/kg [31]: 71%
Activity [32]: Non-toxic
Activity [33]: Active
